From patent US20100035932A1, “NOVEL FORMYL PEPTIDE RECEPTOR LIKE 1 AGONISTS THAT INDUCE MACROPHAGE TUMOR NECROSIS FACTOR ALPHA AND COMPUTATIONAL STRUCTURE-ACTIVITY RELATIONSHIP ANALYSIS OF THEREOF” (priority 2008, published 2010)
Like-named read-outs stand apart in the source and are kept apart here.

Experiments:
J774.A1 macrophages [1] = assay: cells; details: Mus musculus, J774.A1, read-out: Ca2+ Mobilization EC50, Murine Mφ
Method: Murine macrophage J774.A1 cells were cultured in DMEM supplemented with 10% (v/v) heat-inactivated fetal bovine serum (FBS), 10 mM HEPES, 100 μg/ml streptomycin, and 100 U/ml penicillin. Cells were grown to confluence in sterile tissue culture flasks and gently detached by scraping. […] All cell cultures were grown at 37° C. in a humidified atmosphere containing 5% CO2. Cell number and viability were assessed microscopically using trypan blue exclusion.

J774.A1 macrophages [2] = assay: IL-6 production in J774.A1 macrophages (ELISA); assay type: cell-based, murine; details: J774.A1, 24 hr
Method: (§1) Cells were treated for 24 hr with DMSO control, test compound, or LPS and mouse TNF-α or IL-6 and human TNF-α enzyme-linked immunosorbent assay (ELISA) kits (BD Biosciences Pharmigen) were used to detect these cytokines in the cell supernatants. Cytokine concentration was determined by extrapolation from the TNF-α/IL-6 standard curve, according to the manufacturer's protocol.
(§2) For treatments, cells were plated in 96-well microtiter plates at 2×10^5 cells/well (J774.A1, MonoMac6) or 6×10^4 cells/well (human monocyte-derived macrophages) using their respective culture media, except FBS was reduced to 3% (v/v). After incubation overnight (5% CO2, 37° C.), the media were removed and replaced with fresh media containing test compounds.

human neutrophils [3] = assay: ROS production in human neutrophils (L-012 luminescence); assay type: cell-based; details: Neutrophil, concentration that enhanced ROS production by 50% above background, read-out: ROS Production AC50, Human PMN
Method: J774.A1 macrophages were plated at density of 1.5×10^5 cells/well in wells of 96-well flat-bottom white microtiter plates (Corning Incorporated, Costar). After 16 hr (5% CO2, 37° C.), the media was aspirated, and test compounds or vehicle (final DMSO concentration of 1%) were added in fresh media (DMEM without phenol red, supplemented with 3% (v/v) FBS). After 5 min, the media was replaced by HBSS+ containing 4 μM L-012 and 8 μg/ml HRP, and luminescence was monitored for 120 min (2-min intervals) at 37° C. using a Fluoroscan Ascent FL microtiter plate reader (Thermo Electron, Waltham, Mass.). The curve of light intensity (in relative luminescence units) was plotted against time, and the area under the curve was calculated as total luminescence. The percent activation of ROS was calculated as follows: % activation=(sample-DMSO control)/DMSO control×100. The minimal compound concentration that enhanced ROS production by 50% above background control cells (AC50) was determined by graphing the % activation of ROS vs. log [test compound]. Each curve was determined using five to seven compound concentrations. Human neutrophils were plated at density of 5×10^5 cells/well in wells of 96-well flatbottom white microtiter plates, and compounds under investigation or vehicle (final DMSO concentration of 1%) were added. After 5 min, the media was replaced by HBSS+ containing […] L-012, and luminescence was monitored for 120 min (2-min intervals) at 37° C. using a Fluoroscan Ascent FL microtiter plate reader. The results were analysed as described above to determine % activation and AC50 values.

murine neutrophils = assay: Chemotaxis assay, murine neutrophils; assay type: cell-based; details: percent of response induced by 50 nM KC
human neutrophils [4] = assay: Ca2+ mobilization in human neutrophils (FLIPR Calcium 3); details: Neutrophil
J774.A1 macrophages [5] = assay: TNF-α production in J774.A1 macrophages (ELISA); assay type: cell-based, murine; details: for fold induction at 50 µM: Mus musculus, J774.A1, 24 h; for Effect of Boc-2 (FPR/FPRL1 antagonist) on compound-induced TNF-α production: pretreated 5 min with Boc 2 (40 μM); for Effect of Boc-2 (FPR/FPRL1 antagonist) on compound-induced TNF-α production / Effect of WRW4 (FPRL1 antagonist) on compound-induced TNF-α production: then 50 μM compound 24 hr; for Effect of WRW4 (FPRL1 antagonist) on compound-induced TNF-α production: pretreated 5 min with WRW4 (10 μM); for Effect of PTX on induced TNF-α production: pretreated 30 min with PTX (0.4 and 1 μg/ml), then Compound 50 μM or LPS 50 ng/ml for 12 hr; for Effect of ActD or CHX on compound-induced TNF-α production: pretreated with ActD 1 μg/ml or CHX 5 μg/ml 30 min, then 50 μM compound 12 hr
J774.A1 macrophages [6] = assay: ROS production in J774.A1 macrophages (L-012 luminescence); assay type: cell-based; details: Mus musculus, concentration that enhanced ROS production by 50% above background, read-out: ROS Production AC50, Murine Mφ
Method: (§3) Murine macrophage J774.A1 cells were cultured in DMEM supplemented with 10% (v/v) heat-inactivated fetal bovine serum (FBS), 10 mM HEPES, 100 μg/ml streptomycin, and 100 U/ml penicillin. Cells were grown to confluence in sterile tissue culture flasks and gently detached by scraping. Human monocyte/macrophage MonoMac6 cells (DSMZ, Germany) were cultured in RPMI 1640 supplemented with 10% (v/v) FBS, 10 μg/ml bovine insulin, 100 μg/ml streptomycin, and 100 U/ml penicillin. Rat basophilic leukemia (RBL-2H3) cells transfected with human FPR (RBL-FPR) or FPRL1 (RBL-FPRL1) were cultured in DMEM supplemented with 20% (v/v) FBS, 10 mM HEPES, 100 μg/ml streptomycin, and 100 U/ml penicillin, as described previously (Nanamori et al., 2004). Human monocytic THP-1 cells were cultured in RPMI 1640 medium supplemented with 10% (v/v) FBS, 100 μg/ml streptomycin, and 100 U/ml penicillin. All cell cultures were grown at 37° C. in a humidified atmosphere containing 5% CO2. Cell number and viability were assessed microscopically using trypan blue exclusion.
J774.A1 macrophages were plated at density of 1.5×10^5 cells/well in wells of 96-well flat-bottom white microtiter plates (Corning Incorporated, Costar). […] After 5 min, the media was replaced by HBSS+ containing 4 μM L-012 and 8 μg/ml HRP, and luminescence was monitored for 120 min (2-min intervals) at 37° C. using a Fluoroscan Ascent FL microtiter plate reader (Thermo Electron, Waltham, Mass.). The curve of light intensity (in relative luminescence units) was plotted against time, and the area under the curve was calculated as total luminescence. The percent activation of ROS was calculated as follows: % activation=(sample-DMSO control)/DMSO control×100. The minimal compound concentration that enhanced ROS production by 50% above background control cells (AC50) was determined by graphing the % activation of ROS vs. log [test compound]. Each curve was determined using five to seven compound concentrations. […] The results were analysed as described above to determine % activation and AC50 values.

human FPR = target: T1, human FPR (Homo sapiens, UniProt P21462); assay: Ca2+ mobilization in RBL-FPR cells; assay type: cell-based
T1 construct: expressed in transfected cells; host or cells: rat basophilic leukemia RBL-2H3 cells (RBL-FPR)
T1 sequence (P21462 1-350): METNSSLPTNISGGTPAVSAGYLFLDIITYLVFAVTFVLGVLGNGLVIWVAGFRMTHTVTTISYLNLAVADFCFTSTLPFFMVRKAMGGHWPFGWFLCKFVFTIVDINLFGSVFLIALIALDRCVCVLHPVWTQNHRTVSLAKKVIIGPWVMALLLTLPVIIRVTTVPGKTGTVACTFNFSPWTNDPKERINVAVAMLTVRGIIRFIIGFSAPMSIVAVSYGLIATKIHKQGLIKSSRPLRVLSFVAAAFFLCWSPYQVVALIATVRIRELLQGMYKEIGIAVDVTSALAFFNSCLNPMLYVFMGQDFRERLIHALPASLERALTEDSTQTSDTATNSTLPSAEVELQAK

human neutrophils [7] = assay: Chemotaxis assay, human neutrophils; assay type: cell-based; details: percent of response induced by 50 nM IL-8
[8] = system: human MonoMac6 macrophages; assay: TNF-α production in MonoMac6 cells (ELISA); assay type: cell-based; details: 24 hr, various concentrations
[9] = system: murine peritoneal macrophages; assay: TNF-α production in murine peritoneal macrophages (ELISA); assay type: cell-based; details: 24 hr, various concentrations
Method: Bone marrow leukocytes were flushed from tibias and femurs of BALB/c mice with HBSS− supplemented with 0.1% BSA and 1% glucose and the neutrophils were purified on Percoll density gradients, as previously described (Schepetkin et al., 2007). Peritoneal macrophages were isolated from BALB/c mice 4 days after intraperitoneal injection of 1 ml saline containing 100 μg concanavalin A, as described previously (Schepetkin et al., 2005). Peritoneal exudate cells were suspended in RPMI 1640 containing 10% (v/v) FBS with antibiotics (penicillin and streptomycin) and incubated at 37° C. in 100 mm tissue culture dishes for 1 h. Adherent peritoneal macrophages were harvested and cultured with the compounds under investigation for 24 hr at 37° C. and 5% CO2.
as §1

J774.A1 cells = assay: Cytotoxicity assay (CellTiter-Glo); assay type: cell-based, murine; details: J774.A1, 24 hr
Method: Cytotoxicity was analyzed with a CellTiter-Glo Luminescent Cell Viability Assay Kit (Promega, Inc., Madison, Wis.), according to the manufacturer's protocol. Briefly, J774.A1 cells were cultured at a density of 3×10^4 cells/well with the test compounds for 24 hr at 37° C. and 5% CO2, substrate was added, and luminescence signal in the samples was analyzed with a Fluoroscan Ascent FL.

[10] = system: human monocytic cells THP-1; assay: TNF-α production in THP-1 cells (ELISA); assay type: cell-based; details: 24 hr, various concentrations
Method: as §3, with “All cell cultures were grown at 37° C. in a humidified atmosphere containing 5% CO2.” left out
as §1

[11] = system: human monocyte-derived macrophages; assay: TNF-α production in human monocyte-derived macrophages (ELISA); assay type: cell-based; details: 24 hr, various concentrations
Method: as §1, §2

FPRL1 = target: T2, FPRL1 (Homo sapiens, UniProt P25090); assay: Ca2+ mobilization in RBL-FPRL1 cells; assay type: cell-based
T2 construct: expressed in transfected cells; host or cells: rat basophilic leukemia RBL-2H3 cells (RBL-FPRL1)
T2 sequence (P25090 1-351): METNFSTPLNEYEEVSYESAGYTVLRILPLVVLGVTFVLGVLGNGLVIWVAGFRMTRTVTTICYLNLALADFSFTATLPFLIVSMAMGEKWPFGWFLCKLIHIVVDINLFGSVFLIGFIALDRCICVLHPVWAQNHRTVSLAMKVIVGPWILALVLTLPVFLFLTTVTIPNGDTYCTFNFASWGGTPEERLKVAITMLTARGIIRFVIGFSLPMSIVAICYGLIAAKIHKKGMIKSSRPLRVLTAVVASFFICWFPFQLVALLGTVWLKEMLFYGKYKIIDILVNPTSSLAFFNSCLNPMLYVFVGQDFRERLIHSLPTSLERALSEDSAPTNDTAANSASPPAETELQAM

[12] = read-out: Ca2+ Mobilization EC50, Human PMN
[13] = relative fold of activation compared to vehicle (DMSO) control for 50 μM compound, N.A. = no activity was observed, read-out: TNF-α production

| SMILES | EC50 (J774.A1 macrophages [1]) [µM] | IL-6 production (J774.A1 macrophages [2]) | AC50 (human neutrophils [3]) [µM] | Chemotaxis (%), Murine PMN (murine neutrophils) [%] | EC50 (human neutrophils [4]; [12]) [µM] | EC50 (human neutrophils [4]; read-out: [Ca2+]i EC50) [µM] | fold induction at 50 µM (J774.A1 macrophages [5]; [13]) | AC50 (J774.A1 macrophages [6]) [µM] | Chemotaxis (%), Human PMN (human neutrophils [7]) [%] | TNF-α production in MonoMac6 cells [8] | TNF-α production in murine peritoneal macrophages [9] | Effect on cell viability (J774.A1 cells) | TNF-α production in THP-1 cells [10] | TNF-α production in human monocyte-derived macrophages [11] | Effect of Boc-2 (FPR/FPRL1 antagonist) on compound-induced TNF-α production (J774.A1 macrophages [5]) | Effect of WRW4 (FPRL1 antagonist) on compound-induced TNF-α production (J774.A1 macrophages [5]) | Effect of PTX on induced TNF-α production (J774.A1 macrophages [5]) | Effect of ActD or CHX on compound-induced TNF-α production (J774.A1 macrophages [5]) | EC50 (FPRL1) [µM] | other results |
| --- | --- | --- | --- | --- | --- | --- | --- | --- | --- | --- | --- | --- | --- | --- | --- | --- | --- | --- | --- | --- |
| COc1cc(/C=N\NC(=O)c2ccc3c(c2)OCO3)ccc1OCc1ccccc1 [Compound 6] | 4.2 ± 0.8 | failed to induce macrophage IL-6 production | 38.6 ± 3.3 | 174.8 ± 9.2 | 0.63 ± 0.39 | 0.63 | 5 to 8 | 26.9 ± 3.9 | 98.0 ± 3.4 |  |  |  |  |  |  |  |  |  |  | TNF-α production, primary screening of agonists AG 1-26 (J774.A1 macrophages [5]; murine J774.A1 macrophages): induced modest levels of TNF-α production; EC50 (human FPR): 6.6 µM |
| O=C(N/N=C/c1ccc(-c2cccc(Br)c2)o1)c1cccnc1 [Compound 1] | 24.1 ± 4.1 | induced secretion of IL-6 | 0.2 ± 0.02 | 68.9 ± 7.8 | 0.3 ± 0.2 | 0.3 | 40 to 50 | 25.4 ± 4 | 67.8 ± 9.4 | induced TNF-α production in a concentration-dependent manner | induced TNF-α production in a concentration-dependent manner | had no effect on cell viability | induced TNF-α production in a concentration-dependent manner | induced TNF-α production in a concentration-dependent manner | inhibited | inhibited | significantly inhibited | completely inhibited | 19.1 | fold induction at 50 µM (J774.A1 macrophages [5]; 50 μM compound, above response to vehicle (DMSO) control, Table 5 numbering, N.A. = inactive, read-out: FI (fold-increase of macrophage TNF-α production)): 50; Determined class of macrophage TNF-α inducing activity (J774.A1 macrophages [5]; experimentally determined class): Active |
| O=C(N/N=C/c1ccc(-c2cccc(C(F)(F)F)c2)o1)c1ccc(F)cc1 [Compound 2, 4-fluoro-benzoic acid [5-(3-trifluoromethyl-phenyl)-2-furyl]methylene-hydrazide] | 2.3 ± 0.15 | induced secretion of IL-6 | 0.2 ± 0.04 | 58.0 ± 1.4 | 0.6 ± 0.4 | 0.6 | 30 to 40 | 8.6 ± 2.7 | 91.3 ± 1.6 | induced TNF-α production in a concentration-dependent manner | induced TNF-α production in a concentration-dependent manner | had no effect on cell viability | induced TNF-α production in a concentration-dependent manner | induced TNF-α production in a concentration-dependent manner | inhibited | inhibited | significantly inhibited | completely inhibited | 18.3 |  |
